The text below walks through data of US12157736B2, “Spiro-lactam NMDA modulators and methods of using same” (Tenacia Biotechnology (Hong Kong) Co., Limited, priority 2016, dated 2024).

The target of one series is T1, NMDAR2B (Homo sapiens, UniProt Q13224).
T1 construct: expressed in transfected cells; host or cells: HEK cells (membrane extract)
Put plainly: NMDAR agonist assay, [3H]MK-801 binding, NMDAR2B expressing HEK cell membranes. Format: biochemical. As to conditions: 50 μM glutamate; for EC50: read-out: NMDAR2B log EC50 (converted). Here is the method:
(§1) Assays were conducted as described by Moskal et al., “GLYX-13: a monoclonal antibody-derived peptide that acts as an N-methyl-D-aspartate receptor modulator,” Neuropharmacology, 49, 1077-87, 2005. These studies were designed to determine if the test compounds act to facilitate NMDAR activation in NMDAR2A, NMDAR2B, NMDAR2C or NMDAR2D expressing HEK cell membranes as measured by increases in [^3H]MK-801 binding.
(§2) In the assay, 300 μg of NMDAR expressing HEK cell membrane extract protein was preincubated for 15 minutes at 25° C. in the presence of saturating concentrations of glutamate (50 μM) and varying concentrations of test compound (1×10^−15M−1×10^−7M), or 1 mM glycine. Following the addition of […] of [^3H]MK-801 (22.5 Ci/mmol), reactions were again incubated for 15 minutes at 25° C. (nonequilibrium conditions). Bound and free [^3H]MK-801 were separated via rapid filtration using a Brandel apparatus.
(§3) In analyzing the data, the DPM (disintegrations per minute) of [^3H]MK-801 remaining on the filter were measured for each concentration of test compound or for 1 mM glycine. The DPM values for each concentration of a ligand (N=2) were averaged. The baseline value was determined from the best fit curve of the DPM values modeled using the GraphPad program and the log(agonist) vs. response (three parameters) algorithm was then subtracted from all points in the dataset. The % maximal [3H]MK-801 binding was then calculated relative to that of 1 mM glycine: all baseline subtracted DPM values were divided by the average value for 1 mM glycine. The EC50 and % maximal activity were then obtained from the best fit curve of the % maximal [3H]MK-801 binding data modelled using the GraphPad program and the log(agonist) vs. response (three parameters) algorithm.
(§4) The tables below summarize the results for the wild type […] NMDAR2A, NMDAR2B, NMDAR2C, and NMDAR2D, and whether the compound is not an agonist (−), is an agonist (+), or is a strong agonist (++), where column A is based on the % maximal [3H]MK-801 binding relative to 1 mM glycine (−=0; <100%=+; and >100%=++); and column B is based on log EC50 values (0=−; ≥1×10^−9 M (e.g., −8)=+; and <1×10^−9 M (e.g., −10)=++).

For the next series, the target named is T2, NMDAR2A (Homo sapiens, UniProt Q12879).
T2 construct: expressed in transfected cells; host or cells: HEK cells (membrane extract)
Kind of series: NMDAR agonist assay, [3H]MK-801 binding, NMDAR2A expressing HEK cell membranes. Format: biochemical. As to conditions: 50 μM glutamate; for EC50: read-out: NMDAR2A: log EC50 (converted). The procedure: as §1, §2, §3, §4

Another series can be described thus: IV pharmacokinetics. The class given is in vivo, Sprague Dawley rats. As to conditions: rat, 2 mg/kg, normal saline. Here is the method:
Sprague Dawley rats were dosed intravenously using a normal saline formulation containing 2 mg/kg of the compounds identified in the below table. The table below summarizes the results of the IV pharmacokinetics.

The test system of a further series is rats. Kind of series: Porsolt forced swim test. The note with it: 1 h post-dose, 20 mg/kg, dosed 3 times (24 h, 5 h and 1 h) prior to testing; positive control. Format: in vivo, Sprague Dawley rats. Here is the method: A non-clinical in vivo pharmacology study (Porsolt assay) was performed to measure antidepressant-like effects. A negative control (0.5% sodium carboxymethyl cellulose in 0.9% sterile saline vehicle) and a positive control (fluoxetine) are shown for comparison against test compound. The study allowed for the evaluation of the effects of each compound on the Porsolt forced swim test as assessed by the rats' response (reduced floating time) during a 5-minute swimming test.
Male 2-3 month old Sprague Dawley rats were used (Harlan, Indianapolis, IN). Rats were housed in Lucite cages with aspen wood chip bedding, maintained on a 12:12 light:dark cycle (lights on at 5 AM), and given ad libitum access to Purina lab chow (USA) and tap water throughout the study.
The Porsolt forced swim test adapted for use in rats was performed as described by Burgdorf et al., (The long-lasting antidepressant effects of rapastinel (GLYX-13) are associated with a metaplasticity process in the medial prefrontal cortex and hippocampus. Neuroscience 308:202-211, 2015). Animals were placed in a 46 cm tall×20 cm in diameter clear glass tube filled to 30 cm with tap water (23±1° C.) for 15 min on the first day (habituation) and 5 min on the subsequent test day. Positive control fluoxetine was dosed 3 times (24 h, 5 h and 1 h) prior to testing. Animals were tested 1 h or 24 h post-dosing with the test compounds or vehicle. Animals received a 15 min habituation session 1 day before the 5 min test. Water was changed after every other animal. Animals were videotaped, and floating time as defined as the minimal amount of effort required to keep the animals head above water was scored offline by a blinded experimenter with high inter-rater reliability (Pearson's r>0.9).
Each compound tested at dose level shown. Significance vs. vehicle group for each experiment is marked. […] A compound marked “No” was not statistically significant from vehicle. Data was averaged for test compound and vehicle groups (N approximately 8 per group) and the percent reduction in floating for group treated with test compound relative to group treated with vehicle is shown.

T1 sequence (Q13224 27-1484, species assumed, other chains not shown): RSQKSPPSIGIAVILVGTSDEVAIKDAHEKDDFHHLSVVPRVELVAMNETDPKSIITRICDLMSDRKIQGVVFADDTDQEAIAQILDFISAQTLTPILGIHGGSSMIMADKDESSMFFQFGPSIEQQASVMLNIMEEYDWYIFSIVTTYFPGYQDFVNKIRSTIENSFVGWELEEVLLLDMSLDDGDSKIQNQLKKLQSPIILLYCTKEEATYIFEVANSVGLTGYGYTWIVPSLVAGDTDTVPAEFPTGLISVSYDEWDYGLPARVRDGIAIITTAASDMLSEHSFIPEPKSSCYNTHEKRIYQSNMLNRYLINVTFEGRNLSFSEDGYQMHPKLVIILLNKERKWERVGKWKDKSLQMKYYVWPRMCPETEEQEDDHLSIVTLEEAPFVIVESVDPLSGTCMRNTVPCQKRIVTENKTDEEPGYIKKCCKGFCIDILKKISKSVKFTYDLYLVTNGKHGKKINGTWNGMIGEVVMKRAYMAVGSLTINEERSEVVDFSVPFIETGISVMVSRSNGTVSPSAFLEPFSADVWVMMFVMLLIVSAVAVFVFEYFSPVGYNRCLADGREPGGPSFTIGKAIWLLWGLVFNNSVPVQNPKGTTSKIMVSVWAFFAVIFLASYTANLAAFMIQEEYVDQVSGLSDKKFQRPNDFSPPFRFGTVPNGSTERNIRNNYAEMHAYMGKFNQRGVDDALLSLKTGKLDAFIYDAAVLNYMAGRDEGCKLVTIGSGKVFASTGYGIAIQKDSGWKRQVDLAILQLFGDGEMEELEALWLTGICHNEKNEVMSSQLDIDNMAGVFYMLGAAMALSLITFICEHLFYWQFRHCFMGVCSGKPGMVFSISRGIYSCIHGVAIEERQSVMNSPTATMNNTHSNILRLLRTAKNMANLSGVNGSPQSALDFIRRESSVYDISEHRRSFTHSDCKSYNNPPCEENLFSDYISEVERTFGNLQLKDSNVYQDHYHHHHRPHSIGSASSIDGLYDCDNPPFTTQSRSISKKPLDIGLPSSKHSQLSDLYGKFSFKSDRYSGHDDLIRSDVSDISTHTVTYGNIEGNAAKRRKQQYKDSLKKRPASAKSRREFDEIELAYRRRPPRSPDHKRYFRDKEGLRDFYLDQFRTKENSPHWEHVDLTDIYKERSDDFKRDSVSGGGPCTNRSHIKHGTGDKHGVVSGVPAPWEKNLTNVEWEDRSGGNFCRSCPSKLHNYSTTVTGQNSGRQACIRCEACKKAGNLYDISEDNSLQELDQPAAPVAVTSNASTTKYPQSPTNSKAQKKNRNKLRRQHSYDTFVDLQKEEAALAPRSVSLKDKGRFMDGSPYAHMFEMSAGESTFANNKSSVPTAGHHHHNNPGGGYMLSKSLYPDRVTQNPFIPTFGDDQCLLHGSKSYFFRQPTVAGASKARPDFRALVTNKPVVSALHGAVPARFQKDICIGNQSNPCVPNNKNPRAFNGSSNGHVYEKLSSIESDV
T2 sequence (Q12879 23-1464, species assumed, other chains not shown): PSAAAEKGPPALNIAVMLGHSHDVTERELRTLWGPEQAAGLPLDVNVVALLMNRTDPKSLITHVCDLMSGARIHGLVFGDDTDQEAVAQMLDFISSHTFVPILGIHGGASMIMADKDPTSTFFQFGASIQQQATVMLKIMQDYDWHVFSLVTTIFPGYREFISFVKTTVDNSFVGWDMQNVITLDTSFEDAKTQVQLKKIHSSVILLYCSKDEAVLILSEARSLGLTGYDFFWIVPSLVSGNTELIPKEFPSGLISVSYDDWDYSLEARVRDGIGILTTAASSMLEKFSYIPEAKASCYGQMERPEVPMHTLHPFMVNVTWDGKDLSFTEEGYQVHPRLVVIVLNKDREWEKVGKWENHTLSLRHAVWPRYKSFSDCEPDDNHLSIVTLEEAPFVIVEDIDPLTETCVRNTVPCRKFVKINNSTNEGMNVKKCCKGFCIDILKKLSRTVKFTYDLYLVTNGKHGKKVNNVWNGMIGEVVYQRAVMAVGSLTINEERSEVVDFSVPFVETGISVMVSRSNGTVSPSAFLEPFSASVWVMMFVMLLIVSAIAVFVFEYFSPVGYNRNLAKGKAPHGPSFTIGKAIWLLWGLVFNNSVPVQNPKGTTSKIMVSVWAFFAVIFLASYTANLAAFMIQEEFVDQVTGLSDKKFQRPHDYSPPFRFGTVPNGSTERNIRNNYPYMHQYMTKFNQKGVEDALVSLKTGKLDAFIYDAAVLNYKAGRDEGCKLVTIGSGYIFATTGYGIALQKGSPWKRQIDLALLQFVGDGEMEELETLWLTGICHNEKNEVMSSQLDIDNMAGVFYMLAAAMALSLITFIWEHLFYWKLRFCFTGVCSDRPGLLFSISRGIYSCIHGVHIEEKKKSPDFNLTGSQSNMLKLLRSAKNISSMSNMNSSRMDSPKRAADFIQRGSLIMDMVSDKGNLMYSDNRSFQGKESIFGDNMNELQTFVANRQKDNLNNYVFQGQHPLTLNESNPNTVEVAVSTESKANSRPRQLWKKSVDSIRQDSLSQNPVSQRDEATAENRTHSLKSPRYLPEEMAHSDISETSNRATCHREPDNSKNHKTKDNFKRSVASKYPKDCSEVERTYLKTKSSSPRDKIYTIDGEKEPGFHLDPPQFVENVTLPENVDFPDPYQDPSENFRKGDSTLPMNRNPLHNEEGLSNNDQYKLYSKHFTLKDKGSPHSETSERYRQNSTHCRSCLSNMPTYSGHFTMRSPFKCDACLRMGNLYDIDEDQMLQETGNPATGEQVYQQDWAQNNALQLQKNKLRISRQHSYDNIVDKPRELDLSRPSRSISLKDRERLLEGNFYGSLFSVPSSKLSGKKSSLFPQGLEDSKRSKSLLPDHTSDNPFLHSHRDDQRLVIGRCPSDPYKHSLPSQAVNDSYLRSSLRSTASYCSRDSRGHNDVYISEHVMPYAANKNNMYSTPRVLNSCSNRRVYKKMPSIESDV

Regarding `CC1CC(=O)N(c2ccc(F)cc2)C12CN(Cc1ccccc1)C2=O` (single isomer, unassigned) [BX, 2-benzyl-5-(4-fluorophenyl)-8-methyl-2,5-diazaspiro[3.4]octane-1,6-dione], the “NMDAR2B: % maximal [3H]MK-801 binding relative to 1 mM glycine” value at NMDAR2B is recorded as “+ (<100%=+)”. For the same molecule, the EC50 (usually the concentration at which the effect is half-maximal) on NMDAR2A is > 100 nM.

`CC1CC(=O)N(c2ccc(F)cc2)C12CN(Cc1ccccc1)C2=O` (single isomer, unassigned) [BY, 2-benzyl-5-(4-fluorophenyl)-8-methyl-2,5-diazaspiro[3.4]octane-1,6-dione]: at NMDAR2B, the “NMDAR2B: % maximal [3H]MK-801 binding relative to 1 mM glycine” value was “− (−=0)” and the EC50 was > 100 nM. The “NMDAR2A: % maximal [3H]MK-801 binding relative to 1 mM glycine” value on NMDAR2A is “− (−=0)”.

With `C[C@@H](O)[C@@H](C(=O)NCc1ccccc1)N1CC2(CCNC(=O)C2)C1=O` (single isomer, unassigned) [CA], at NMDAR2B, the “NMDAR2B: % maximal [3H]MK-801 binding relative to 1 mM glycine” value is recorded as “− (−=0)” and the EC50 was > 100 nM. Also, the EC50 at NMDAR2A is > 100 nM.

On to `C[C@@H](O)[C@@H](C(=O)NCc1ccccc1)N1CC2(CCNC(=O)C2)C1=O` (single isomer, unassigned) [CB], for which the CI in “IV pharmacokinetics” worked out at 25.31 mL/min/kg. Besides, the “NMDAR2B: % maximal [3H]MK-801 binding relative to 1 mM glycine” value on NMDAR2B is reported as “+ (<100%=+)”. On NMDAR2A, the “NMDAR2A: % maximal [3H]MK-801 binding relative to 1 mM glycine” value is “− (−=0)”.

Consider `C[C@@H](O)[C@@H](C(=O)N(C)C)N1CC2(CCNC(=O)C2)C1=O` (single isomer, unassigned) [CC], for which the CI in the series “IV pharmacokinetics” amounted to 15.65 mL/min/kg. At NMDAR2A (read-out: NMDAR2A: % maximal [3H]MK-801 binding relative to 1 mM glycine), the Emax turned out to be 0%. The EC50 on NMDAR2A is > 100 nM.

For the molecule `CC1CC(=O)N(c2ccc(F)cc2)C12CN(CC(N)=O)C2=O` (single isomer, unassigned) [CE, 2-(5-(4-fluorophenyl)-8-methyl-1,6-dioxo-2,5-diazaspiro[3.4]octan-2-yl)acetamide], on NMDAR2B, the “NMDAR2B: % maximal [3H]MK-801 binding relative to 1 mM glycine” value is “− (−=0)” and the EC50 was > 100 nM. For the same molecule, the EC50 on NMDAR2A was > 100 nM.

Consider `CC1CC(=O)N(c2ccc(F)cc2)C12CN(CC(N)=O)C2=O` (single isomer, unassigned) [CF, 2-(5-(4-fluorophenyl)-8-methyl-1,6-dioxo-2,5-diazaspiro[3.4]octan-2-yl)acetamide], for which the “NMDAR2B: % maximal [3H]MK-801 binding relative to 1 mM glycine” value at NMDAR2B was “+ (<100%=+)”. The “NMDAR2A: % maximal [3H]MK-801 binding relative to 1 mM glycine” value at NMDAR2A is given as “− (−=0)”.

With `CC1C(N)C(=O)N(C)C12CN(Cc1ccccc1)C2=O` (single isomer, unassigned) [CG, 7-amino-2-benzyl-5,8-dimethyl-2,5-diazaspiro[3.4]octane-1,6-dione], the “NMDAR2B: % maximal [3H]MK-801 binding relative to 1 mM glycine” value at NMDAR2B was “+ (<100%=+)”. Besides, the EC50 on NMDAR2A was > 100 nM.

Regarding `CC1C(N)C(=O)N(C)C12CN(Cc1ccccc1)C2=O` (single isomer, unassigned) [CH, 7-amino-2-benzyl-5,8-dimethyl-2,5-diazaspiro[3.4]octane-1,6-dione], on NMDAR2B, the “NMDAR2B: % maximal [3H]MK-801 binding relative to 1 mM glycine” value is given as “− (−=0)” and the EC50 is > 100 nM. Also, the “NMDAR2A: % maximal [3H]MK-801 binding relative to 1 mM glycine” value on NMDAR2A is “− (−=0)”.

Consider `COc1ccc(CN2CC3(CCN(C)C(=O)C3)C2=O)cc1` (single isomer, unassigned) [CI, 2-(4-methoxybenzyl)-7-methyl-2,7-diazaspiro[3.5]nonane-1,6-dione], for which, in “IV pharmacokinetics”, the CI is listed as 32 mL/min/kg.

In the case of `CCN1CCC2(CC1=O)CN(Cc1ccc(OC)cc1)C2=O` (single isomer, unassigned) [CK, 7-ethyl-2-(4-methoxybenzyl)-2,7-diazaspiro[3.5]nonane-1,6-dione], at NMDAR2B, the “NMDAR2B: % maximal [3H]MK-801 binding relative to 1 mM glycine” value was “− (−=0)” and the EC50 is > 100 nM. Besides, at NMDAR2A, the “NMDAR2A: % maximal [3H]MK-801 binding relative to 1 mM glycine” value was “− (−=0)” and the EC50 is > 100 nM.

Turning to `CCN1CCC2(CC1=O)CN(Cc1ccc(OC)cc1)C2=O` (single isomer, unassigned) [CL, 7-ethyl-2-(4-methoxybenzyl)-2,7-diazaspiro[3.5]nonane-1,6-dione], the CI in “IV pharmacokinetics” is listed as 41.73 mL/min/kg. In addition, at NMDAR2B, the “NMDAR2B: % maximal [3H]MK-801 binding relative to 1 mM glycine” value is on record as “+ (<100%=+)”. For the same molecule, the “NMDAR2A: % maximal [3H]MK-801 binding relative to 1 mM glycine” value on NMDAR2A was “+ (<100%=+)”.

On to `COc1ccc(CN2CC3(CCNC(=S)C3)C2=O)cc1` (single isomer, unassigned) [CM, 2-(4-methoxybenzyl)-6-thioxo-2,7-diazaspiro[3.5]nonan-1-one], for which the EC50 at NMDAR2B and on NMDAR2A was > 100 nM throughout.

In the case of `CN1CCC2(CC1=O)CN(Cc1ccccc1)C2=O` (single isomer, unassigned) [CX, 2-benzyl-7-methyl-2,7-diazaspiro[3.5]nonane-1,6-dione], the “NMDAR2B: % maximal [3H]MK-801 binding relative to 1 mM glycine” value at NMDAR2B is on record as “+ (<100%=+)”. Further, at NMDAR2A, the “NMDAR2A: % maximal [3H]MK-801 binding relative to 1 mM glycine” value is “+ (<100%=+)”.

Turning to `CNC(=O)[C@H]([C@@H](C)O)N1CC2(CCNC(=O)C2)C1=O` (single isomer, unassigned) [DA], on NMDAR2B, the “NMDAR2B: % maximal [3H]MK-801 binding relative to 1 mM glycine” value is recorded as “− (−=0)” and the EC50 was > 100 nM. At NMDAR2A, the EC50 is > 100 nM.

On to `CNC(=O)[C@H]([C@@H](C)O)N1CC2(CCNC(=O)C2)C1=O` (single isomer, unassigned) [DB], for which the “NMDAR2B: % maximal [3H]MK-801 binding relative to 1 mM glycine” value on NMDAR2B is “++ (>100%=++)”. In addition, the “NMDAR2A: % maximal [3H]MK-801 binding relative to 1 mM glycine” value at NMDAR2A is on record as “− (−=0)”.

On to `CC1CC(=O)N(c2ccc(F)cc2)C12CN([C@H](C(N)=O)[C@@H](C)O)C2=O` (single isomer, unassigned) [DL], for which, on NMDAR2B, the “NMDAR2B: % maximal [3H]MK-801 binding relative to 1 mM glycine” value is given as “− (−=0)”. Also, the “NMDAR2A: % maximal [3H]MK-801 binding relative to 1 mM glycine” value on NMDAR2A is recorded as “+ (<100%=+)”.

`CNCCC(Oc1ccc(C(F)(F)F)cc1)c1ccccc1` (centres unmarked) [Fluoxetine, fluoxetine, reference compound]: the Significance vs. vehicle result with rats is “Yes”.
